US8362075B2, “Cyclohexyl sulphones for treatment of cancer” (Merck Sharp & Dohme Corp., priority 2005, dated 2013)

System: Cells expressing Notch (ALL-SIL, DND-41, HPB-ALL or TALL-1)
Test: Assay for Cell Cycle Arrest (propidium iodide, FACS)
Assay type: cell-based
Settings: concentrations up to 10 μM, incubation typically 4-8 days
Experimental: Assay for Cell Cycle Arrest Cells expressing Notch (ALL-SIL, DND-41, HPB-ALL or TALL-1) (Weng et al, Science, 306 (2004), 269-71) were incubated in the presence or absence of a compound of the instant invention (e.g. the compound of Example 39 below) at concentrations up to 10 μM. At the end of the incubation (typically 4-8 days), the cells were collected, fixed in 70% ethanol on ice for >2 hours, washed, then labelled for 15 min at 37° C. with propidium iodide (0.2 mg/ml) (PI) in the presence of 0.1% Triton X100 and 0.2 mg/ml RNase and subjected to FACS analysis. […] Assay for Apoptosis

Compound: O=C(O)CC[C@H]1CC[C@@](c2cc(F)ccc2F)(S(=O)(=O)c2ccc(Cl)cc2)CC1 [Example 39, cis-4-[(4-chlorophenyl)sulfonyl]-4-(2,5-difluorophenyl)cyclohexanepropanoic acid]
- cell cycle populations versus untreated controls: severe loss of G2- and S-phase populations, consistent with G0/G1 arrest
